Assay results from patent US5240918A, “2-(substituted imino)-thiazolidines and process for the preparation thereof” (EGIS Gyogyszergyar, priority 1992, dated 1993).
Where two headings read alike, the source gives them in different places.

What was measured:
acetic acid "writhing" = experiment: Acetic acid "writhing test" on mice (analgesic effect; method of Newbould); format: in vivo; conditions: Mus musculus, po
Method: 2. Acetic acid "writhing test" on mice (analgesic effect) Method: Newbould, Brit. […] In the period between the 5th and 10th minutes following the administration of acetic acid the number of the characteristic "writhing" responses is counted for each animal and the "total writhing number" (within 5 minutes) is expressed as the percentage of the value obtained for the control animals. The mice are treated with the test compound and the carrier, respectively, orally 1 hour before the administration of acetic acid. 12 animals are used per dose.

[1] = Toxicity (LD50) and therapeutical index, Table II; conditions: mouse, in vivo
[2] = tested on: experimental coronaria insufficiency induced with vasopressin; experiment: Antianginal effect (vasopressin-induced experimental coronaria insufficiency, ECG wave T; method of Nieschulz et al.); format: in vivo; conditions: male rats, 2 minutes prior to vasopressin; for ED50: Rattus norvegicus, iv.
Method: Method: the test was carried out on rats by using the method of Nieschulz, E., Popendiker, K. and Hoffmann, I. (Arzneimittel Forschung, 5, 680 /1955/).
Male rats of 180-220 g body weight were narcotized with chloralese-urethane(70-700 mg/kg ip.). The ECG was registered with needle electrodes in standard II leading. The experimental coronaria insufficiency was induced with […].). The height of wave T in ECG was measured before and after the administration of vasopressin in both the control and treated groups. Test compounds were administered intravenously 2 minutes prior to the treatment with vasopressin.

[3] = white mice, orally 1 hour before acetic acid, writhing counted 5th to 10th minutes, 12 animals per dose, read-out: ID50 (the source's name)

Structure (SMILES) | ED50 (acetic acid "writhing"; read-out: ID50 mg/kg) | LD50 [1] | selectivity ratio [1] | ED50 [2] | Activity (2 mg/kg iv.) [2] | ED50 (acetic acid "writhing"; [3])
CC(=O)Oc1ccccc1C(=O)O [Acetylsalicylic acid, reference compound] | 261 mg/kg | 1350 mg/kg | 5.2 |  |  | 
C=CCNC(=S)N=C1SCCN1c1cc(Cl)ccc1[N+](=O)[O-] [Example 20, 2-(N'-Allylthiocarbamoylimino)-3-(5'-chloro-2'-nitrophenyl)-thiazolidine] |  |  |  | 1.45 mg/kg | 78% | 
CC(=O)N=C1SCCN1c1ccc(Cl)cc1[N+](=O)[O-] [Example 24, 2-Acetylimino-3-(4'-chloro-2'-nitrophenyl)-thiazolidine] |  | 700 mg/kg | 10.9 |  |  | 37 mg/kg
CC(=O)N=C1SCCN1c1ccccc1[N+](=O)[O-] [Example 25, L-Acetylimino=3-(2-nitrophenyl)-thiazolidine] |  | 2000 mg/kg | 11.1 |  |  | 180 mg/kg
CC(=O)N=C1SCCN1c1ccc(C(F)(F)F)cc1[N+](=O)[O-] [Example 26, 2-Acetylimino-3-(4'-trifluoromethyl-2'-nitrophenyl)-thiazolidine] |  | 2000 mg/kg | 11.8 |  |  | 170 mg/kg
N#CN=C1SCCN1c1cc(Cl)ccc1[N+](=O)[O-] [Example 46, 2-Cyanimido-3-(5'-chloro-2'-nitrophenyl)thiazolidine] |  |  |  | 1.76 mg/kg | 62% | 
